Patent publication US5708032A, “Fluoroalkenyl compounds and their use as pest control agents” (Monsanto Company, priority 1995, dated 1998)
Values joined by “and” are separate entries in the source; they are usually repeats but may differ in a detail not shown here. Identical values can stand only once. Counter-ions that a name gives are not always drawn. Like-named read-outs stand apart in the source and are kept apart here.

Test system: root knot nematodes (Meloidogyne incognita)
Assay: systemic control of root knot nematodes on tomato roots by foliar application
Format: in vivo
Conditions: for pest or weed control at 100 ppm / pest or weed control at 500 ppm: Meloidogyne incognita, 504 h, read-out: percent control of root disease relative to non-treated plants
Method: Compounds of the present invention, prepared as described above, were tested for effectiveness in controlling root knot nematodes (Meloidogyne incognita) on tomato roots when applied to foliage of young plants.
Tomato plants, cv `Rutgers`, were grown one per pot in six an square plastic pots containing a mixture of equal parts fine sand, coarse sand, silt loam soil, and commercial potting medium. A 10,000 ppm stock solution of each test compound was prepared in either water or acetone. Samples were then diluted with additional water to give final test concentrations of 500 and 100 ppm. Tween®20 was added for a final concentration of 0.5% v/v in all test samples.
When the tomato plants were 18-21 days old the test solutions were sprayed onto the leaves and stems. Each rate of each test compound was applied to three tomato plants using four ml of spray solution per plant. One day after spraying the plants were inoculated with mature root knot nematode eggs containing J1 larvae, with 8,000 eggs per plant applied in 5 ml of water on soil at the stem base. Plants then were incubated in a growth chamber at 27° C. with all replicate pots randomized throughout the chamber. During the two weeks immediately following application of the test compounds all plants received sub-irrigation and the foliage was kept dry.
After three weeks incubation the plant roots were washed and nematode disease severity was assessed. Each root system was rated individually and a visual estimate of the percent of the root system afflicted with nematode galling was determined. Values of 0, 1, 5, 10, 20, 30, 40, 50, 60, 70, 80, or 100 percent galled roots were assigned to each plant. […] For each treatment (compound & rate) a standard deviation was calculated for the mean of the three replicate plants. Percent disease control relative to non-treated plants also was calculated.

[1] = 100 ppm foliar spray, tomato cv Rutgers, 3 weeks, mean of three plants, non-treated generally 60% or greater
[2] = 500 ppm foliar spray, tomato cv Rutgers, 3 weeks, mean of three plants, non-treated generally 60% or greater
[3] = 100 ppm foliar spray, tomato cv Rutgers, 3 weeks, * = no biological activity at the rate tested
[4] = 500 ppm foliar spray, tomato cv Rutgers, 3 weeks, * = no biological activity at the rate tested

| Compound | Mean percent root disease (galled) [1] [%] | Mean percent root disease (galled) [2] [%] | pest or weed control at 100 ppm [3] [%] | pest or weed control at 500 ppm [4] [%] | pest or weed control at 100 ppm (foliar) [%] | pest or weed control at 500 ppm (foliar) [%] | Mean percent root disease (galled) (in vivo) |
| --- | --- | --- | --- | --- | --- | --- | --- |
| N#CCNC(=O)CC(F)=C(F)F [Example 2, 3-BUTENAMIDE, N-CYANOMETHYL)-3,4,4- TRIFLUORO-] | 73 | 67 | 8 | 17 |  |  |  |
| CONC(=O)CC(F)=C(F)F [Example 3, 3-BUTENAMIDE, 3,4,4-TRIFLUORO-N-METHOXY-] | 77 | 70 | 12 | 20 |  |  |  |
| NC(=O)NNC(=O)CC(F)=C(F)F [Example 4, 3-BUTENOIC ACID, 3,4,4-TRIFLUORO-, 2-(AMINOCARBONYL)HYDRAZIDE] | 80 | 73 | 0 | 8 |  |  |  |
| COc1cc(OC)nc(NC(=O)CC(F)=C(F)F)n1 [Example 5, 3-BUTENAMIDE, N-(4,6-DIMETHOXY-2-PYRIMIDINYL)- 3,4,4-TRIFLUORO-] | 90 | 30 | -3 | 66 |  |  |  |
| C[Si](C)(C)CN(Cc1ccccc1)C(=O)CC(F)=C(F)F [Example 6, 3-BUTENAMIDE, 3,4,4-TRIFLUORO-N-(PHENYLMETHYL)- N-[(TRIMETHYLSILYL) METHYL]-] |  |  |  |  | 2 | 0 | 87% and 85% |
| O=C(CC(F)=C(F)F)Nc1ccc(S(=O)(=O)O)cc1 [Example 7, BENZENESULFONIC ACID, 4-[(3,4,4-TRIFLUORO-1-OXO-3- BUTENYL)AMINO]-] | 23 | 17 | 56 | 69 |  |  |  |
| CS(=O)(=O)NC(=O)CC(F)=C(F)F [Example 8, 3-BUTENAMIDE, 3,4,4-TRIFLUORO-N- (METHYLSULFONYL)-] | 80 | 5 | 0 | 94 |  |  |  |
| O=C(CC(F)=C(F)F)NS(=O)(=O)C(F)(F)F [Example 9, 3-BUTENAMIDE, 3,4,4-TRIFLUORO-, N-[(TRIFLUOROMETHYL)SULFONYL]-] | 80 | 5 | 0 | 94 |  |  |  |
| O=C(CC(F)=C(F)F)NCS(=O)(=O)O [Example 10, METHANESULFONIC ACID, [(3,4,4-TRIFLUORO-1-OXO-3- BUTENYL)AMINO]-] | 20 | 27 | 62 | 50 |  |  |  |
| O=C(CC(F)=C(F)F)n1cncn1 [Example 11, 1H-1,2,4-TRIAZOLE, 1-(3,4,4-TRIFLUORO-1-OXO-3- BUTENYL)-] | 80 | 7 | 0 | 92 |  |  |  |
| O=C(CC(F)=C(F)F)n1cccn1 [Example 12, 1H-PYRAZOLE, 1-(3,4,4-TRIFLUORO-1-OXO-3- BUTENYL)-] | 80 | 43 | 0 | 46 |  |  |  |
| FC(F)=C(F)CC(=S)Nc1ccccc1 [Example 13, 3-BUTENETHIOAMIDE, 3,4,4-TRIFLUORO-N-PHENYL-] | 40 | 27 | 25 | 50 |  |  |  |
| C[Si](C)(C)CCCOC(=O)CC(F)=C(F)F [Example 14, 3-BUTENOIC ACID, 3,4,4-TRIFLUORO-, 3-(TRIMETHYLSILYL)PROPYL ESTER] |  |  |  |  | 4 | 8 | 80% and 83% |
| C[Si](C)(C)CCSC(=O)CC(F)=C(F)F [Example 15, 3-BU[…], 3,4,4-TRIFLUORO-, S-[2-(TRIMETHYLSILYL)ETHYL] ESTER] |  |  |  |  | 2 | -3 | 90% and 85% |
| O=C(CC(F)=C(F)F)Sc1ncccn1 [Example 16, 3,-BUTENETHIOIC ACID, 3,4,4-TRIFLUORO-, S-2-PYRIMIDINYL ESTER] | 80 | 50 | 0 | 38 |  |  |  |
| O=P(O)(O)CC(F)=C(F)F [Example 18, PHOSPHONIC ACID, (2,3,3-TRIFLUORO-2-PROPENYL)-] |  |  |  |  | -5 | 0 | 73% and 77% |
| O=P(O)(CC(F)=C(F)F)c1ccccc1 [Example 19, PHOSPHINIC ACID, PHENYL(2,3,3-TRIFLUORO-2- PROPENYL)-, SODIUM SALT] | 73 | 73 | 0 | 0 |  |  |  |
| Cc1ccccc1C(=O)CC(F)=C(F)F [Example 20, 3-BUTEN-1-ONE, 3,4,4-TRIFLUORO-1-(2-METHYL PHENYL)-] | 53 | 47 | 0 | 12 |  |  |  |
